From patent US20070282004A1, “Use of a Cyclopentenone Prostaglandin for Delaying for the Onset and/or Preventing the Continuation of Labour” (Imperial College Innovations Limited, priority 2003, published 2007)
“Also recorded” adds a separate entry of the source.

What was measured:
[1] = tested on: NF-κB; experiment: NF-κB-dependent luciferase reporter (κB.BG.Luc) in myometrial cells; type: cell-based, human; conditions: for IL-1β-induced NF-κB transcriptional activity (κB.BG.Luc reporter): treated 2 h, IL-1β 1 ng/ml 6 h
Experimental: Myometrial cells were transiently transfected with the NFκB-dependent reporter construct κB.BG.Luc, treated with 15dPGJ2 or vehicle for 2 h, ±IL-1β (1 ng/ml) for 6 h. […] Values are normalised for b-gal reporter activity. (NS=nonstimulated).
Myometrial cells were transfected with […] κB.BG.Luc reporter and 200 ng PPAR-γ expression vector and treated with 15d-PGJ2 for 2 h followed by IL-1β (1 ng/ml) for 6 h. Values are normalised for β-galactosidase reporter activity. (NS=nonstimulated).
(§1) Myometrial tissue was collected at term from the upper margin of uterine incision at the time of lower segment caesarean section either prior to the onset of labour (L−) or […] (L+). L+ samples were collected by Dr Mark Johnson and Dr S Soorrana at Chelsea & Westminster Hospital. Myometrial tissue was dissected, rinsed in PBS, and digested in serum-free DMEM containing 15 mg/ml collagenase 1A (Sigma), 15 mg/ml collagenase X, and 50 mg/ml bovine serum albumin for 45 min at 37° C. The cell suspension was filtered through a cell strainer, centrifuged at 400 g for 5 min, and the pellet re-suspended and plated out in DMEM, 10% FCS (Helena BioScience), 1% L-glutainine, 1% penicillin-streptomycin. Cells were used between passage numbers 1-4.
pGL3.6κB.BG.luc: a NF-κB-dependent reporter construct with 6 copies of the NF-κB binding site.
Cells were co-transfected with the renilla vector pRL-CMV or β-galactosidase vector pCH110 as internal controls for transfection efficiencies.

[2] = tested on: NF-κB; experiment: Western immunoblot of p65, p50, IκB in myometrial cell extracts; type: cell-based, human; conditions: myometrial cells; for IL-1β-induced p65 nuclear translocation: treated 2 h
Experimental: Western immunoblots of nuclear or cytosolic protein extracts from (A) myometrial cells, (B) L− amnion cells, and (C) L+ amnion cells treated with 15dPGJ2 or vehicle for 2 h±IL-1β stimulation (15 min). Blots probed with antibodies against p65, p50 or IκBα.
Western immunoblots of nuclear or cytosolic protein extracts from myometrial cells treated with PGA1 or vehicle for 2 h followed by IL-1β stimulation (15 min). Blots probed with antibodies against p65 or IκBa.
Western immunoblots of cytosolic extracts from myometrial cells (A) treated with 15dPGJ2 for 2h±IL1b for 15 min; probed for IKK, and (B) treated with […] 15dPGJ2, […] MG132 or vehicle for 2 h, ±IL-1β for 15 min; probed for IκBα.
(A) NF-κB-DNA binding was measured by EMSA in nuclear protein extracts from myometrial cells pre-treated with vehicle, 15d-PGJ2 or PGA1 for 2 h, followed by stimulation with IL-1β (1 ng/ml) for 15 min. Antibodies against p50 and p65 were used for supershift analysis. (B) Myometrial cells were transiently transfected with a NF-κB-LUC reporter and a β-gal reporter plasmid, pre-treated with vehicle or PGA1 for 2 h, and stimulated with IL-1β (1 ng/ml) for 6 h. Luciferase activity was normalized for β-gal reporter readout. Values are presented as the mean±SEM obtained for each treatment done in triplicate. Western blot analysis of nuclear p65 and p50 expression in myometrial cells treated with (C) PGA1 or (D) 15d-PGJ2 for 2 h, followed by stimulation with IL-1β (1 ng/ml) for 15 min. (E) Western blot analysis of whole cell lysates from myometrial cells treated with 15d-PGJ2 or 9,10-dihydro-15d-PGJ2 for 2 h, followed by stimulation with IL-1β (1 ng/ml) for 15 min. Membranes were probed with antibodies against p65 and Ser 536-phosphorylated p65.
as §1
Nuclear and cytosolic protein extracts were obtained from cultured amnion cells as described by Schreiber et al (1989). For nuclear/cytosolic fractionation, confluent cell monolayers were scraped and lysed using a buffer containing 10 mM HEPES, 10 mM KCl, 0.1 mM EDTA, 0.1 mM EGTA, 2 mM DTT, 1% (v/v) NP-40 and complete protease inhibitor tablets (CPIs, Roche), diluted to manufacturer's instructions. Cell lysates were incubated on ice for 10 min and NP-40 added to a final concentration of 1% (v/v). Lysates were vortexed for 10 secs and centrifuged for 30 secs at 4° C., 12000 g. The supernatants were retained as the cytosolic protein extracts. The pellets were resuspended in buffer containing 10 mM HEPES, 10 mM KCl, 0.1 mM EDTA, 0.1 mM EGTA, 2 mM DTT, 400 mM NaCl, 1% NP-40 (v/v) and CPIs. Samples were shaken vigorously for 15 min in an ice bath. The nuclear protein extracts were obtained in the supernatant following a 5 min centrifugation at 4° C., 12000 g.
Protein samples (20-70 μg) were mixed with Laemmli sample buffer (1:1) containing β-mercaptoethanol (5%), and boiled for 5 min. Proteins were then separated by SDS-PAGE (12-14% gels) and transferred onto PVDF membrane (Amersham Pharmacia Biotech). The membranes were blocked overnight in 5% non-fat milk prepared in PBS-T buffer, at 4° C. The blots were incubated with the primary antibody in 1% non-fat milk in PBS-T buffer for 1 h, and washed three times (10 min each) in PBS-T with vigorous shaking. […]

CCCCCC=CC=C1C(=O)C=C[C@@H]1CC=CCCCC(=O)O [15d-PGJ2, 15-deoxy-Δ^12,14prostaglandin J2]
Effect of PPARγ overexpression on 15d-PGJ2 inhibition of NF-κB transcriptional activity ([1]; 200 ng PPAR-γ expression vector): does not potentiate
IL-1β-induced NF-κB transcriptional activity (κB.BG.Luc reporter) [1]: reducing reporter activity to basal levels; also recorded: inhibited
IL-1β-induced NF-κB transcriptional activity (κB.BG.Luc reporter) ([1]; listed as 15dPGJ2): inhibition
IL-1β-induced IκBα degradation [2]: inhibition
IL-1β-induced IκBβ degradation [2]: inhibition
IL-1β-induced p50 phosphorylation [2]: inhibition
IκBα phosphorylation [2]: inhibits
Accumulation of phosphorylated IκBα ([2]; 2 h, IL-1β 15 min): not detected
IL-1β-induced p65 nuclear translocation ([2]; IL-1β 15 min): inhibited
IL-1β-induced p65 nuclear translocation ([2]; IL-1β 15 min, listed as 15dPGJ2): inhibition

CCCCC[C@H](O)/C=C/[C@H]1C=CC(=O)[C@@H]1CCCCCCC(=O)O [PGA1, prostaglandin A1]
IL-1β-induced NF-κB transcriptional activity (κB.BG.Luc reporter) [1]: reduced to basal levels
IL-1β-induced IκBα degradation [2]: inhibition
Reproduction of the effects of 15d-PGJ2 on NF-κB (incl. Ser 536-phosphorylated p65) ([2]; 2 h, IL-1β 15 min, similar in amnion epithelial cells): shares the effect of 15d-PGJ2
IL-1β-induced p65 nuclear translocation ([2]; IL-1β 15 min): inhibition; also recorded: inhibited
